Measured values reported in patent US5648365A, “Diarylalkyl piperidines useful as multi-drug resistant tumor agents” (Merrell Pharmaceuticals Inc., priority 1996, dated 1997).

Tests used:
[1] = test system: MDR tumor cells; assay: Cellular toxicity: inhibition of cell growth, colorimetric MTT assay; assay type: cell-based; settings: concentration that inhibits cell growth by 50%, 72 hr
Method: (§1) A colorimetric assay is employed to determine the synergy between test compounds of the invention and vinblastine or adriamycin against the growth of MDR tumor cells. The assay is based on the ability of live tumor cells to reduce a tetrazoline compound, MTT (3-(4,5-dimethyl)[…])-2,5-diphenyl tetrazolium bromide, to a blue formazan product. Both the test compound and cytotoxic drug (vinblastine or adriamycin) were added to the cells growing in wells of a 96-well plate at different combinations of concentration. The cells were allowed to grow for 72 hr and, at the end of incubation, stained with MTT for 3 hr. The blue formazan product which developed, was dissolved with DMSO and the color intensity was recorded in a spectrophotometer. Based on the data, an isobologram analysis was performed. MDR activity (ED50 : μM) represents the concentration of the compound required to lower the IC50 value of vinblastine by 50% when both the compounds were added to the medium together. Cellular toxicity (IC50 : μM) represents concentration of the compound that inhibit cell growth by 50%. Activity index is the ratio of toxicity and MDR activity.

[2] = test system: MDR tumor cells; assay: MDR activity: synergy with vinblastine, colorimetric MTT assay; assay type: cell-based; settings: for EC50: concentration required to lower the IC50 of vinblastine by 50% when both added together, 72 hr, MTT, read-out: MDR Activity ED50; for Activity Index: ratio of toxicity (IC50) and MDR activity (ED50), 4320 min
Method: as §1

Structure (SMILES)	IC50 [1]	EC50 [2]	Activity Index [2]
COc1ccccc1CC(=O)N1CCCCC1CC(c1ccccc1)c1ccccc1 (stereo not drawn) [Example 2, 1-[2-(2,2-Diphenyl-Ethyl)-Piperidin-1-yl]-2(2-Methoxy-Phenyl)-Ethanone]	37.5 µM	1.16 µM	32.0
COc1cc(CC(=O)N2CCCCC2C(c2ccccc2)c2ccccc2)cc(OC)c1OC (stereo not drawn) [Example 9]	30.3 µM	0.7 µM	43.5
O=C(Cc1ccc2c(c1)OCO2)N1CCCCC1CC(c1ccccc1)c1ccccc1 (stereo not drawn) [Example 3, 2-Benzo[1,3]Dioxol-5-yl-1-[2-(2,2-Diphenylethyl)-Piperidin-1-yl]-Ethanone]	39 µM	1.2 µM	32.5
COc1cc(CC(=O)N2CCCCC2CC(c2ccccc2)c2ccccc2)cc(OC)c1OC (stereo not drawn) [Example 1, 1-[2-(2,2-Diphenyl-Ethyl)-Piperidin-1-yl]-2-(3,4,5-Trimethoxy-Phenyl)-Ethanone]	33.8 µM	0.31 µM	109.0
COc1ccc(CCC(=O)N2CCCCC2CC(c2ccccc2)c2ccccc2)cc1OC (stereo not drawn) [Example 6, 3-(3,4-Dimethoxy-Phenyl)-1-[2-(2,2-Diphenylethyl)-Piperidin-1-yl]-Propan-1-one]	21.6 µM	0.46 µM	47.0
